Laboratory results reported in ChEMBL document CHEMBL1137358, “Synthetic inhibitors of cytochrome P-450 2A6: inhibitory activity, difference spectra, mechanism of inhibition, and protein cocrystallization” (J Med Chem, 2006).

Molecular target: T1, Cytochrome P450 2A6 (Homo sapiens, UniProt P11509)
T1 sequence (P11509 whole entry): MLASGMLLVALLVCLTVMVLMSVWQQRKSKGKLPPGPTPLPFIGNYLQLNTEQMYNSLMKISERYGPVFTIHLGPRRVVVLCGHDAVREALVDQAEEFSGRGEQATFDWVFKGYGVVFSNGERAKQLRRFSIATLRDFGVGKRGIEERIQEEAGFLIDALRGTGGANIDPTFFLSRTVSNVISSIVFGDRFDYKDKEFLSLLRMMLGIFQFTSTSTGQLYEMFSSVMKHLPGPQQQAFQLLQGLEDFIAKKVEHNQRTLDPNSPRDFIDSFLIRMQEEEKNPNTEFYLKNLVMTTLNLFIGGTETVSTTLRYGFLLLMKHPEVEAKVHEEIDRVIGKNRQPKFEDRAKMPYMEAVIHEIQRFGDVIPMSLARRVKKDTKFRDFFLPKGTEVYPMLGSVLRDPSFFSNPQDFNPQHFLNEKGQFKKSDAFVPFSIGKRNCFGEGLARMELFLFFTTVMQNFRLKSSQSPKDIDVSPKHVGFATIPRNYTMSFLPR
Assay: Inhibition of human CYP2A6
Details: not given; call rule not given here

| Compound | Ki [µM] |
| --- | --- |
| CN(C)CC#Cc1cccnc1 | 67.5 |
| SCc1ccc(-c2cccnc2)o1 | < 0.8 |
| c1cncc(-c2ccc(C3SCCS3)o2)c1 | 13.9 |
| Cn1cnc(-c2cccnc2)c1 | 0.4 |
| CN(C)Cc1ccc(-c2cccnc2)s1 | 66.5 |
| NCCCc1cccnc1 | 6.6 |
| CC(=O)SCc1ccc(-c2cccnc2)o1 | 0.8 |

Molecular target: T2, Cytochrome P450 2B6 (Homo sapiens, UniProt P20813)
T2 sequence (P20813 whole entry): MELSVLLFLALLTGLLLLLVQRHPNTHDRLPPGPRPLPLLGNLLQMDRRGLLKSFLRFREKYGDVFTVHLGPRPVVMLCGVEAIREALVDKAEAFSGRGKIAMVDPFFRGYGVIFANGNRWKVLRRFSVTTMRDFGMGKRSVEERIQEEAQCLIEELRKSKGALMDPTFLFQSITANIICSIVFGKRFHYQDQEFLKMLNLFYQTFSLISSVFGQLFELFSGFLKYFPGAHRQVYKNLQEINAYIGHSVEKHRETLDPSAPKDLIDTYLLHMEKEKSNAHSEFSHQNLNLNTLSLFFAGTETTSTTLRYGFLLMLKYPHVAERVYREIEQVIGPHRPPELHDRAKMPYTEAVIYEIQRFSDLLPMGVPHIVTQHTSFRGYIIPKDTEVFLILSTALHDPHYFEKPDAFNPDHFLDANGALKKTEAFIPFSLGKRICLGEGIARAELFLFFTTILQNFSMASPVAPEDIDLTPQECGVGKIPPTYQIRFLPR
Assay: Inhibition of human CYP2B6
Details: not given

| Compound | Ki [µM] |
| --- | --- |
| CN(C)CC#Cc1cccnc1 | 192 |
| SCc1ccc(-c2cccnc2)o1 | 1.1 |
| c1cncc(-c2ccc(C3SCCS3)o2)c1 | 5.3 |
| Cn1cnc(-c2cccnc2)c1 | 73 |
| CN(C)Cc1ccc(-c2cccnc2)s1 | > 400 |
| NCCCc1cccnc1 | > 400 |
| CC(=O)SCc1ccc(-c2cccnc2)o1 | 0.9 |

Molecular target: Cytochrome P450 3A4 (Homo sapiens, UniProt P08684)
Assay: Inhibition of human CYP3A4
Details: not given

Cytochrome P450 3A4, sequence (P08684 whole entry): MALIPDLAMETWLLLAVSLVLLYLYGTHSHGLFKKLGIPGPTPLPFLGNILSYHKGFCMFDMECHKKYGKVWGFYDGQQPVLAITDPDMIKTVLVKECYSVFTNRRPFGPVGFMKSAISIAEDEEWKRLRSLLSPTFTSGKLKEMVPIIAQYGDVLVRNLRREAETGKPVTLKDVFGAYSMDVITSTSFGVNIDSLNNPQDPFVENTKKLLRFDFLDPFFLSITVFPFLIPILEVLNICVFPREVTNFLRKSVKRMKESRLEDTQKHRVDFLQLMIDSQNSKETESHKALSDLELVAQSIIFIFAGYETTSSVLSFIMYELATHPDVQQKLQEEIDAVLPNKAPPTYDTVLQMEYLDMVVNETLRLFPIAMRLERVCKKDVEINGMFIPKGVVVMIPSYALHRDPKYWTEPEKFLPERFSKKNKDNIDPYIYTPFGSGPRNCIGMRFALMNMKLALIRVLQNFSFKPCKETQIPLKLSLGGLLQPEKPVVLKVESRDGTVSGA

| Compound | Ki [µM] |
| --- | --- |
| CN(C)CC#Cc1cccnc1 | > 400 |
| SCc1ccc(-c2cccnc2)o1 | 3.1 |
| c1cncc(-c2ccc(C3SCCS3)o2)c1 | 1.1 |
| Cn1cnc(-c2cccnc2)c1 | 131 |
| CN(C)Cc1ccc(-c2cccnc2)s1 | 110 |
| NCCCc1cccnc1 | > 400 |
| CC(=O)SCc1ccc(-c2cccnc2)o1 | 1.5 |

Test system: CYP2A6 over CYP3A4
Assay: Selectivity for CYP2A6 over CYP3A4
Details: human

| Compound | selectivity ratio |
| --- | --- |
| CN(C)CC#Cc1cccnc1 | > 3 |
| SCc1ccc(-c2cccnc2)o1 | > 4.1 |
| c1cncc(-c2ccc(C3SCCS3)o2)c1 | 0.1 |
| CN(C)Cc1ccc(-c2cccnc2)s1 | 1.6 |
| NCCCc1cccnc1 | > 400 |
| CC(=O)SCc1ccc(-c2cccnc2)o1 | 1.7 |

Test system: CYP2A6 over CYP2E1
Assay: Selectivity for CYP2A6 over CYP2E1
Details: human

| Compound | selectivity ratio |
| --- | --- |
| CN(C)CC#Cc1cccnc1 | > 3 |
| SCc1ccc(-c2cccnc2)o1 | < 0.1 |
| c1cncc(-c2ccc(C3SCCS3)o2)c1 | 0.04 |
| Cn1cnc(-c2cccnc2)c1 | 5 |
| CN(C)Cc1ccc(-c2cccnc2)s1 | > 3 |
| NCCCc1cccnc1 | > 30 |
| CC(=O)SCc1ccc(-c2cccnc2)o1 | 0.3 |

Molecular target: T1, Cytochrome P450 2A6
Assay: Displacement of coumarin from CYP2A6 at 100 uM
Assay type: ADME
Details: not given

| Compound | Activity |
| --- | --- |
| SCc1ccc(-c2cccnc2)o1 | Active |
| c1cncc(-c2ccc(C3SCCS3)o2)c1 | Active |
| CC(=O)SCc1ccc(-c2cccnc2)o1 | Not Active |

Molecular target: Cytochrome P450 2D6 (Homo sapiens, UniProt P10635)
Assay: Inhibition of human CYP2D6
Details: not given

Cytochrome P450 2D6, sequence (P10635 whole entry): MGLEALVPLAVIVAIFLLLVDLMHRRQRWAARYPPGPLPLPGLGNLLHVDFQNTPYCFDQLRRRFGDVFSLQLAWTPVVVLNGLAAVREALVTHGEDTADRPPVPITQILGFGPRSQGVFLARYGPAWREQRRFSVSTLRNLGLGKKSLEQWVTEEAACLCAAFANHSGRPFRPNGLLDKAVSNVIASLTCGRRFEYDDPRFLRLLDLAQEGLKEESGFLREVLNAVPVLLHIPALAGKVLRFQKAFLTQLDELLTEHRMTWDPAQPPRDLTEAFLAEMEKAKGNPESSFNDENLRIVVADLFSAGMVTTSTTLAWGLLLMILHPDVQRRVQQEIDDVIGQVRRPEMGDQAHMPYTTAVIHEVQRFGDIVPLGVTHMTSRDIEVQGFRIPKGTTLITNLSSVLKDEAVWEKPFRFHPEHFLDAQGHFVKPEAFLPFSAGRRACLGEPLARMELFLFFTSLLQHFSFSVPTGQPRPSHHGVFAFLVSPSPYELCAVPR

| Compound | Ki [µM] |
| --- | --- |
| CN(C)CC#Cc1cccnc1 | > 400 |
| SCc1ccc(-c2cccnc2)o1 | 0.7 |
| c1cncc(-c2ccc(C3SCCS3)o2)c1 | 38.4 |
| Cn1cnc(-c2cccnc2)c1 | 102 |
| CN(C)Cc1ccc(-c2cccnc2)s1 | 14.4 |
| NCCCc1cccnc1 | > 400 |
| CC(=O)SCc1ccc(-c2cccnc2)o1 | 45.4 |

Molecular target: Cytochrome P450 2C19 (Homo sapiens, UniProt P33261)
Assay: Inhibition of human CYP2C19
Details: not given

Cytochrome P450 2C19, sequence (P33261 whole entry): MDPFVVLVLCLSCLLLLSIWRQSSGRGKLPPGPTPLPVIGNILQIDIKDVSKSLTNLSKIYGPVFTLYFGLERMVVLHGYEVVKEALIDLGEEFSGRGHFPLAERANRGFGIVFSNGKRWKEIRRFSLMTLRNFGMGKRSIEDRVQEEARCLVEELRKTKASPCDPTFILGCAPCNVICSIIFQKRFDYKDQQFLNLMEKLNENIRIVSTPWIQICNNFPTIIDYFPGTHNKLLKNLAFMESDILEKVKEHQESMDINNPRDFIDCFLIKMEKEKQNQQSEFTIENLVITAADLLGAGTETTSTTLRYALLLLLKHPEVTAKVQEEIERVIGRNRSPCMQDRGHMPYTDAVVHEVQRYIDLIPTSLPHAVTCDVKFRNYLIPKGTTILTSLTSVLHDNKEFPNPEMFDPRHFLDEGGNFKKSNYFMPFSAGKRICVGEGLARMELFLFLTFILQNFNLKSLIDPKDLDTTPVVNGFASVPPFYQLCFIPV

| Compound | Ki [µM] |
| --- | --- |
| CN(C)CC#Cc1cccnc1 | > 400 |
| SCc1ccc(-c2cccnc2)o1 | 0.2 |
| c1cncc(-c2ccc(C3SCCS3)o2)c1 | 0.7 |
| Cn1cnc(-c2cccnc2)c1 | 61 |
| CN(C)Cc1ccc(-c2cccnc2)s1 | 53 |
| NCCCc1cccnc1 | > 400 |
| CC(=O)SCc1ccc(-c2cccnc2)o1 | 3.9 |

Test system: CYP2A6 over CYP2B6
Assay: Selectivity for CYP2A6 over CYP2B6
Details: not given

| Compound | selectivity ratio |
| --- | --- |
| CN(C)CC#Cc1cccnc1 | 2.8 |
| SCc1ccc(-c2cccnc2)o1 | > 1.5 |
| c1cncc(-c2ccc(C3SCCS3)o2)c1 | 0.4 |
| CN(C)Cc1ccc(-c2cccnc2)s1 | > 3 |
| NCCCc1cccnc1 | > 30 |
| CC(=O)SCc1ccc(-c2cccnc2)o1 | 1 |

Molecular target: Cytochrome P450 2C9 (Homo sapiens, UniProt P11712)
Assay: Inhibition of human CYP2C9
Details: not given

Cytochrome P450 2C9, sequence (P11712 whole entry): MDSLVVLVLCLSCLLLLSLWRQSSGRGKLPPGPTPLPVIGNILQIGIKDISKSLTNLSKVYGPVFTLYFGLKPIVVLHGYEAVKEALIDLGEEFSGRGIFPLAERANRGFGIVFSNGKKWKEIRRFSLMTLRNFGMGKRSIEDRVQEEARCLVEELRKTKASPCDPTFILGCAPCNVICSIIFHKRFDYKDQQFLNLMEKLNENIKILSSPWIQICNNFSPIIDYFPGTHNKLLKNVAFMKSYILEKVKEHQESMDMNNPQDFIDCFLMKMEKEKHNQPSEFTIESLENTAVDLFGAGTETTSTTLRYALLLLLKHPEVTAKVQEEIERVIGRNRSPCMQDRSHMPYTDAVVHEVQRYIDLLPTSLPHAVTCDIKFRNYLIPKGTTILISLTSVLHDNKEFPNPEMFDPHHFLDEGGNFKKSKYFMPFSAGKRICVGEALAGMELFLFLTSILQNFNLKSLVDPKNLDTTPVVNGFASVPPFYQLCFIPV

| Compound | Ki [µM] |
| --- | --- |
| CN(C)CC#Cc1cccnc1 | > 400 |
| SCc1ccc(-c2cccnc2)o1 | 0.4 |
| c1cncc(-c2ccc(C3SCCS3)o2)c1 | 1.3 |
| Cn1cnc(-c2cccnc2)c1 | 39.7 |
| CN(C)Cc1ccc(-c2cccnc2)s1 | 103 |
| NCCCc1cccnc1 | > 400 |
| CC(=O)SCc1ccc(-c2cccnc2)o1 | 2.9 |

Test system: Liver microsomes
Assay: (§1) Stability in human liver microsome
Details: microsomes

| Compound | Stability |
| --- | --- |
| CN(C)CC#Cc1cccnc1 | Stable |
| Cn1cnc(-c2cccnc2)c1 | Stable |
| CN(C)Cc1ccc(-c2cccnc2)s1 | Stable |
| NCCCc1cccnc1 | Stable |

Test system: not listed separately
Assay: as §1
Details: liver microsomes

| Compound | half-life [h] |
| --- | --- |
| c1cncc(-c2ccc(C3SCCS3)o2)c1 | 1.53 |
| CC(=O)SCc1ccc(-c2cccnc2)o1 | 0.5 |

Same assay, conditions: microsomes

| Compound | half-life [h] |
| --- | --- |
| SCc1ccc(-c2cccnc2)o1 | 1.98 |

Test system: CYP2A6 over CYP2D6
Assay: Selectivity for CYP2A6 over CYP2D6
Details: human

| Compound | selectivity ratio |
| --- | --- |
| CN(C)CC#Cc1cccnc1 | > 3 |
| SCc1ccc(-c2cccnc2)o1 | < 0.9 |
| c1cncc(-c2ccc(C3SCCS3)o2)c1 | 2.8 |
| CN(C)Cc1ccc(-c2cccnc2)s1 | 0.2 |
| NCCCc1cccnc1 | > 30 |
| CC(=O)SCc1ccc(-c2cccnc2)o1 | 53 |

Test system: CYP2A6 over CYP2C19
Assay: Selectivity for CYP2A6 over CYP2C19
Details: human

| Compound | selectivity ratio |
| --- | --- |
| CN(C)CC#Cc1cccnc1 | > 3 |
| SCc1ccc(-c2cccnc2)o1 | < 0.3 |
| c1cncc(-c2ccc(C3SCCS3)o2)c1 | 0.1 |
| CN(C)Cc1ccc(-c2cccnc2)s1 | 0.8 |
| NCCCc1cccnc1 | > 30 |
| CC(=O)SCc1ccc(-c2cccnc2)o1 | 4.6 |

Species: Mus musculus
Assay: (§2) Stability in mouse liver microsome
Details: microsomes

| Compound | Stability |
| --- | --- |
| CN(C)CC#Cc1cccnc1 | Stable |
| NCCCc1cccnc1 | Stable |

Test system: not listed separately
Assay: as §2
Details: liver microsomes

| Compound | half-life [h] |
| --- | --- |
| c1cncc(-c2ccc(C3SCCS3)o2)c1 | 0.4 |
| Cn1cnc(-c2cccnc2)c1 | 8.02 |
| CN(C)Cc1ccc(-c2cccnc2)s1 | 5.72 |
| CC(=O)SCc1ccc(-c2cccnc2)o1 | 0.3 |

Same assay, conditions: microsomes

| Compound | half-life [h] |
| --- | --- |
| SCc1ccc(-c2cccnc2)o1 | 1.75 |

Test system: CYP2A6 over CYP2C9
Assay: Selectivity for CYP2A6 over CYP2C9
Details: human

| Compound | selectivity ratio |
| --- | --- |
| CN(C)CC#Cc1cccnc1 | > 3 |
| c1cncc(-c2ccc(C3SCCS3)o2)c1 | 0.1 |
| CN(C)Cc1ccc(-c2cccnc2)s1 | 1.5 |
| NCCCc1cccnc1 | > 30 |
| CC(=O)SCc1ccc(-c2cccnc2)o1 | 3.4 |

Molecular target: Cytochrome P450 2E1 (Homo sapiens, UniProt P05181)
Assay: Inhibition of human CYP2E1
Details: not given

Cytochrome P450 2E1, sequence (P05181 whole entry): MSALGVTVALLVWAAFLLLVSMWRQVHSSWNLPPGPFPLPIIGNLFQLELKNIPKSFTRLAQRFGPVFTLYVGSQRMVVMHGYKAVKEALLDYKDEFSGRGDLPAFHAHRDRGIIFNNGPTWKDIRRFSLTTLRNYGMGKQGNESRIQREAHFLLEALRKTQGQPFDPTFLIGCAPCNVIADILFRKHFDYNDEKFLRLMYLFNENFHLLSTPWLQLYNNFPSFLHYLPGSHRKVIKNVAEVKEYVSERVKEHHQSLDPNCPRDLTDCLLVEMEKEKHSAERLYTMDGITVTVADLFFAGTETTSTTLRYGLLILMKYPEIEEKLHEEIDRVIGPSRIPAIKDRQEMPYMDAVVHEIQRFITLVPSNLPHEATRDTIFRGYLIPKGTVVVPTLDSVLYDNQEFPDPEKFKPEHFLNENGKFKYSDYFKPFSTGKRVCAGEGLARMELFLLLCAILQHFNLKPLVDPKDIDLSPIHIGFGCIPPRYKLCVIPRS

| Compound | Ki [µM] |
| --- | --- |
| CN(C)CC#Cc1cccnc1 | > 400 |
| SCc1ccc(-c2cccnc2)o1 | 0.05 |
| c1cncc(-c2ccc(C3SCCS3)o2)c1 | 0.6 |
| Cn1cnc(-c2cccnc2)c1 | 2 |
| CN(C)Cc1ccc(-c2cccnc2)s1 | > 400 |
| NCCCc1cccnc1 | > 400 |
| CC(=O)SCc1ccc(-c2cccnc2)o1 | 0.2 |
